Experiments:
[1] = molecular target: Carbonic anhydrase 9 (Homo sapiens, UniProt Q16790)
Description: Inhibition of human carbonic anhydrase 9 assessed as inhibition constant incubated for 15 mins prior to testing by phenol red based stopped-flow CO2 hydration assay

[2] = test system: MCF7; assay: Antiproliferative activity against human MCF7 cells assessed as cell growth inhibition incubated for 4 hrs under hypoxia condition by MTT colorimetric assay; assay type: functional, cell-based; details: MCF7, 4 h
[3] = test system: T47D; assay: Antiproliferative activity against human T47D cells assessed as cell growth inhibition incubated for 4 hrs under normoxia condition by MTT colorimetric assay; assay type: functional, cell-based
[4] = test system: T47D; assay: Antiproliferative activity against human T47D cells assessed as cell growth inhibition incubated for 4 hrs under hypoxia condition by MTT colorimetric assay; assay type: functional, cell-based
[5] = test system: MCF7; assay: Antiproliferative activity against human MCF7 cells assessed as cell growth inhibition incubated for 4 hrs under normoxia condition by MTT colorimetric assay; assay type: functional, cell-based; details: MCF7, 4 h

SMILES	Ki [1] [nM]	further results
NS(=O)(=O)c1ccccc1NCCC(=O)c1ccccc1	313	
NS(=O)(=O)c1ccc(CCNCCC(=O)c2ccccc2)cc1	87.9	
NS(=O)(=O)c1cccc(NCCC(=O)c2ccccc2)c1	75.7	
NS(=O)(=O)c1ccc(C(=O)NNCCC(=O)c2ccccc2)cc1	45.3	
NS(=O)(=O)c1ccc(NCC/C(=N/CCO)c2ccccc2)cc1	10.2	IC50 [2]: 5700 nM; IC50 [3]: 43100 nM; IC50 [4]: 10900 nM; IC50 [5]: 29300 nM
COc1cccc2c1C(=O)c1c(O)c3c(c(O)c1C2=O)C[C@@](O)(C(=O)CO)C[C@@H]3O[C@H]1C[C@H](N)[C@H](O)[C@H](C)O1 [DOXORUBICIN]		IC50 [3]: 3200 nM; IC50 [4]: 3800 nM

Continued, in another order:

Ki [1] [nM]	SMILES	further results
82.5	NS(=O)(=O)c1ccc(NNCCC(=O)c2ccccc2)cc1	
53.8	NS(=O)(=O)c1ccc(NCC/C(=N\O)c2ccccc2)cc1	
945	NS(=O)(=O)c1ccccc1NCCC(=O)c1ccc2ccccc2c1	
38.7	NS(=O)(=O)c1cccc(NCCC(=O)c2ccc3ccccc3c2)c1	
36.3	NS(=O)(=O)c1ccc(C(=O)NNCCC(=O)c2ccc3ccccc3c2)cc1	
51.5	NS(=O)(=O)c1ccc(NCCC(=O)c2ccccc2)cc1	
66.7	NS(=O)(=O)c1ccc(NNCCC(=O)c2ccc3ccccc3c2)cc1	
9.4	NS(=O)(=O)c1ccc(NCCC(=O)c2ccc3ccccc3c2)cc1	IC50 [2]: 7500 nM; IC50 [3]: > 100000 nM; IC50 [4]: 19000 nM; IC50 [5]: 55100 nM

From ChEMBL document CHEMBL5113396, “Development of 4-((3-oxo-3-phenylpropyl)amino)benzenesulfonamide derivatives utilizing tail/dual-tail approaches as novel carbonic anhydrase inhibitors” (Eur J Med Chem, 2022)
